Earlier results in patent US20220161013A1, “IMPROVED DELIVERY OF DRUG THERAPY TO THE CNS BY ULTRASOUND-BASED OPENING OF THE BLOOD-BRAIN BARRIER” (NORTHWESTERN UNIVERSITY, priority 2019, published 2022).

Tests used:
[1] = test system: orthotropic glioma xenograft model; settings: with valspodar, nude mice
[2] = target: p-Glycoprotein (Homo sapiens, UniProt P08183)
[3] = local convection-enhanced delivery

p-Glycoprotein, sequence (P08183 whole entry): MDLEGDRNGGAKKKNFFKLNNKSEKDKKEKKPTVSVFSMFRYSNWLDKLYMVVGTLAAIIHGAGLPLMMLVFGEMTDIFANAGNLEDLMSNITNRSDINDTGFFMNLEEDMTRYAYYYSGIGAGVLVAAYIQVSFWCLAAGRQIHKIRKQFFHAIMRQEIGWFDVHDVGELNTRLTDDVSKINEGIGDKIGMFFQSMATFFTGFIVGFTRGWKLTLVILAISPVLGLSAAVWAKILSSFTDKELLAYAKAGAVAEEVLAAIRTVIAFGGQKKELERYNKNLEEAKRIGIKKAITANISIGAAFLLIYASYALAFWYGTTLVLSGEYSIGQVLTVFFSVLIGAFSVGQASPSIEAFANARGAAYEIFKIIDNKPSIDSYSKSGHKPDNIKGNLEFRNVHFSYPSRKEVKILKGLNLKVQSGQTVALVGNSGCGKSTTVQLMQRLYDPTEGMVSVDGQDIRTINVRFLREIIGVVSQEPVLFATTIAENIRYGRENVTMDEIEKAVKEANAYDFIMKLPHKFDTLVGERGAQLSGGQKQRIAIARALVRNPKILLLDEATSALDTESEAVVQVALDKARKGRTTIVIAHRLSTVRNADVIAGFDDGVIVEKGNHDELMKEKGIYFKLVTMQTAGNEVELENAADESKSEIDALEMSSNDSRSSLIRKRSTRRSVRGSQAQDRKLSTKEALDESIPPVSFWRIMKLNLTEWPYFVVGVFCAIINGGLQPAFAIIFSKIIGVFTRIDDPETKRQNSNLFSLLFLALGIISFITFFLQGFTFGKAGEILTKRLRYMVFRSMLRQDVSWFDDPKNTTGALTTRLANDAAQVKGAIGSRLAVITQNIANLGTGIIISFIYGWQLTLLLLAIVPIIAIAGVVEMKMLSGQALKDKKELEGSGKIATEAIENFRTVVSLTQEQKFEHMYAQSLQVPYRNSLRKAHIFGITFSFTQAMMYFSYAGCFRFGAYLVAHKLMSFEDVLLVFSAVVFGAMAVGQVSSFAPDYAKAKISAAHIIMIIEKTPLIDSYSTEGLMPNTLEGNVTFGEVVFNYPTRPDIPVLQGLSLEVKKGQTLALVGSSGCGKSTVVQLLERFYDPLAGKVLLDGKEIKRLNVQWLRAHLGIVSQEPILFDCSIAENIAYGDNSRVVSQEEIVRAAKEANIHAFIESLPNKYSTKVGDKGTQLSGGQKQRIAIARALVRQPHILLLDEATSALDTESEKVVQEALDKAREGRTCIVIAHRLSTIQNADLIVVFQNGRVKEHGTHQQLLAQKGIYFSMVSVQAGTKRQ

substrate for the multidrug resistance protein p-Glycoprotein [2]: substrate
Compound: CC(=O)O[C@H]1C(=O)[C@@]2(C)[C@H]([C@H](OC(=O)c3ccccc3)[C@]3(O)C[C@H](OC(=O)[C@H](O)[C@@H](NC(=O)c4ccccc4)c4ccccc4)C(C)=C1C3(C)C)[C@]1(OC(C)=O)CO[C@@H]1C[C@@H]2O [PTX, paclitaxel]
effectiveness when using p-Glycoprotein blocker valspodar [1]: significant increased effectiveness
response rate [3]: 73%
